Reference: US6274715A, “Tricyclic erythromycin derivatives” (priority 1997, dated 2001)
≈ marks a conversion by molar mass, not a printed value.

Tests used:
Type in all cases: cell-based
[1] = system: STAPHYLOCOCCUS AUREUS ATCC 6538P; assay: In vitro antibacterial activity, MIC, BHI agar dilution; settings: S. aureus ATCC 6538P, 35-37° C., 20 to 24 hours, unit assumed
[2] = system: STAPHYLOCOCCUS AUREUS A-5278; assay: as above; settings: S. aureus A-5278, unit assumed
[3] = system: STAPHYLOCOCCUS AUREUS CMX 642A; assay: as above; settings: S. aureus CMX 642A, unit assumed
[4] = system: STAPHYLOCOCCUS AUREUS NCTC10649M; assay: as above; settings: S. aureus NCTC10649M, unit assumed
[5] = system: STAPHYLOCOCCUS AUREUS CMX 553; assay: as above; settings: S. aureus CMX 553, unit assumed
[6] = system: STAPHYLOCOCCUS AUREUS 1775; assay: as above; settings: S. aureus 1775, unit assumed
[7] = system: STAPHYLOCOCCUS EPIDERMIDIS 3519; settings: S. epidermidis 3519; BHI agar; unit assumed
EN[…] ATCC 8043 = assay: In vitro antibacterial activity, MIC, BHI agar dilution; settings: E. faecium ATCC 8043, unit assumed
Procedure, shortened: (§1)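 BHI agar dilution, 12 plates; inoculum 1:100 (1:10 slow-growing strains), Steers replicator; 35-37° C, 20-24 h. MIC = lowest conc. with no growth/slight haze/sparse colonies vs growth control, visual read. Erythromycin A reference plate.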

M[…] ATCC 4698 = assay: as above; settings: M. luteus ATCC 4698, unit assumed
Procedure, shortened: as §1

M[…] ATCC 9341 = assay: as above; settings: M. luteus ATCC 9341, unit assumed
Procedure, shortened: as §1

STR[…] 508 = assay: as above; settings: S. agalactiae CMX 508, unit assumed
Procedure, shortened: as §1

[8] = system: STREPTOCOCCUS BOVIS A-5169; assay: as above; settings: S. bovis A-5169, unit assumed
[9] = system: STREPTOCOCCUS PYOGENES EES61; assay: as above; settings: S. pyogenes EES61, unit assumed
[10] = system: STREPTOCOCCUS PYOGENES 930; assay: as above; settings: S. pyogenes 930, unit assumed
[11] = system: STREPTOCOCCUS PYOGENES PIU 2548; assay: as above; settings: S. pyogenes PIU 2548, unit assumed
ESCHERICHIA COLI JUHL = settings: E. coli JUHL; BHI agar; unit assumed
ESCHERICHIA COLI SS = assay: In vitro antibacterial activity, MIC, BHI agar dilution; settings: E. coli SS, unit assumed
ESCHERICHIA COLI H560 = assay: as above; settings: E. coli H560, unit assumed
ESCHERICHIA COLI KNK 437 = settings: E. coli KNK 437; BHI agar; unit assumed
[12] = system: ENTEROBACTER AEROGENES ATCC 13048; assay: In vitro antibacterial activity, MIC, BHI agar dilution; settings: E. aerogenes ATCC 13048, unit assumed
[13] = system: PROVIDENCIA STUARTII CMX 640; settings: P. stuartii CMX 640; BHI agar; unit assumed
[14] = system: PSEUDOMONAS AERUGINOSA BMH10; assay: In vitro antibacterial activity, MIC, BHI agar dilution; settings: P. aeruginosa BMH10, unit assumed
[15] = system: PSEUDOMONAS AERUGINOSA 5007; assay: as above; settings: P. aeruginosa 5007, unit assumed
[16] = system: PSEUDOMONAS AERUGINOSA K799/WT; assay: as above; settings: P. aeruginosa K799/WT, unit assumed
[17] = system: PSEUDOMONAS AERUGINOSA K799/61; assay: as above; settings: P. aeruginosa K799/61, unit assumed
PSEUDOMONAS CEPACIA 296I = assay: as above; settings: P. cepacia 296I, unit assumed
[18] = system: ACINETOBACTER CALCOACETICUS CMX 669; assay: as above; settings: A. calcoaceticus CMX 669, unit assumed
[19] = system: PSEUDOMONAS AERUGINOSA DPHD-5263; assay: as above; settings: P. aeruginosa DPHD-5263, unit assumed
[20] = system: PSEUDOMONAS AERUGINOSA DPHD-2862; assay: as above; settings: P. aeruginosa DPHD-2862, unit assumed
CANDIDA ALBICANS CCH 442 = assay: as above; settings: C. albicans CCH 442, unit assumed
[21] = system: MYCOBACTERIUM SMEGMATIS ATCC 114; assay: as above; settings: M. smegmatis ATCC 114, unit assumed
ESCHERICHIA COLI DC-2 = assay: as above; settings: E. coli DC-2, unit assumed
[22] = system: KLEBSIELLA PNEUMONIAE ATCC 8045; assay: as above; settings: K. pneumoniae ATCC 8045, unit assumed

Row | SMILES | MIC [1] [µg/mL] | MIC [2] [µg/mL] | MIC [3] [µg/mL] | MIC [4] [µg/mL] | MIC [6] [µg/mL] | MIC [7] [µg/mL] | MIC (M[…] ATCC 9341) [µg/mL] | MIC [8] [µg/mL] | MIC [10] [µg/mL] | MIC [11] [µg/mL] | MIC (ESCHERICHIA COLI JUHL) [µg/mL] | MIC (ESCHERICHIA COLI H560) [µg/mL] | MIC [12] [µg/mL] | MIC [13] [µg/mL] | MIC [14] [µg/mL] | MIC [15] [µg/mL] | MIC (PSEUDOMONAS CEPACIA 296I) [µg/mL] | MIC [18] [µg/mL] | MIC [19] [µg/mL] | MIC [20] [µg/mL] | other results
1 | CC[C@H]1OC(=O)[C@H](C)C(=O)[C@H](C)[C@@H](O[C@@H]2O[C@H](C)C[C@H](N(C)C)[C@H]2O)[C@](C)(OC)C[C@@H](C)C2=NC[C@H](Cc3ccccc3)N3C(=O)O[C@@]1(C)[C@H]3[C@H]2C [Example 5] | 0.2 (≈ 0.275 µM) | > 100 | 0.2 (≈ 0.275 µM) | 0.2 (≈ 0.275 µM) | > 100 | 0.2 (≈ 0.275 µM) | 0.05 (≈ 0.0687 µM) | 0.01 (≈ 0.0137 µM) | > 100 | 0.39 (≈ 0.536 µM) | 12.5 (≈ 17.2 µM) | 3.1 (≈ 4.26 µM) | 50 (≈ 68.7 µM) | > 100 | 50 (≈ 68.7 µM) | > 100 | 25 (≈ 34.3 µM) | 12.5 (≈ 17.2 µM) | > 100 | > 100 | MIC [5]: 0.2 µg/mL (≈ 0.275 µM); MIC (EN[…] ATCC 8043): 0.05 µg/mL (≈ 0.0687 µM); MIC (M[…] ATCC 4698): 0.2 µg/mL (≈ 0.275 µM); MIC (STR[…] 508): 0.02 µg/mL (≈ 0.0275 µM); MIC [9]: 0.02 µg/mL (≈ 0.0275 µM); MIC (ESCHERICHIA COLI SS): 0.39 µg/mL (≈ 0.536 µM); MIC (ESCHERICHIA COLI KNK 437): 6.2 µg/mL (≈ 8.52 µM); MIC [16]: 50 µg/mL (≈ 68.7 µM); MIC [17]: 0.78 µg/mL (≈ 1.07 µM); MIC (CANDIDA ALBICANS CCH 442): > 100 µg/mL; MIC [21]: 0.2 µg/mL (≈ 0.275 µM)
2 | CC[C@H]1OC(=O)[C@H](C)C(=O)[C@H](C)[C@@H](O[C@@H]2O[C@H](C)C[C@H](N(C)C)[C@H]2O)[C@](C)(OC)C[C@@H](C)C2=N[C@H](C)[C@H](C)N3C(=O)O[C@@]1(C)[C@H]3[C@H]2C [Example 10] | 0.39 (≈ 0.586 µM) | > 100 | 0.39 (≈ 0.586 µM) | 0.39 (≈ 0.586 µM) | > 100 | 0.39 (≈ 0.586 µM) | 0.1 (≈ 0.15 µM) | 0.05 (≈ 0.0751 µM) | > 100 | 0.39 (≈ 0.586 µM) | 25 (≈ 37.5 µM) | 25 (≈ 37.5 µM) | 50 (≈ 75.1 µM) | > 100 | > 100 | > 100 | 100 (≈ 150 µM) | 25 (≈ 37.5 µM) | > 100 | > 100 | MIC [5]: 0.39 µg/mL (≈ 0.586 µM); MIC (M[…] ATCC 4698): 0.2 µg/mL (≈ 0.3 µM); MIC (ESCHERICHIA COLI SS): 0.2 µg/mL (≈ 0.3 µM); MIC (ESCHERICHIA COLI DC-2): 25 µg/mL (≈ 37.5 µM); MIC (CANDIDA ALBICANS CCH 442): > 100 µg/mL; MIC [21]: 6.2 µg/mL (≈ 9.31 µM)
3 | CC[C@H]1OC(=O)[C@H](C)C(=O)[C@H](C)[C@@H](O[C@@H]2O[C@H](C)C[C@H](N(C)C)[C@H]2O)[C@](C)(OC)C[C@@H](C)C2=NC[C@@H](CCCc3ccccc3)N3C(=O)O[C@@]1(C)[C@H]3[C@H]2C [Example 36] | 0.2 (≈ 0.265 µM) | > 100 | 0.2 (≈ 0.265 µM) | 0.2 (≈ 0.265 µM) | > 100 | 0.2 (≈ 0.265 µM) | 0.05 (≈ 0.0661 µM) | 0.01 (≈ 0.0132 µM) | 50 (≈ 66.1 µM) | 0.39 (≈ 0.516 µM) | 50 (≈ 66.1 µM) | 25 (≈ 33.1 µM) | 25 (≈ 33.1 µM) | 100 (≈ 132 µM) | 50 (≈ 66.1 µM) | 100 (≈ 132 µM) | 50 (≈ 66.1 µM) | 50 (≈ 66.1 µM) | 50 (≈ 66.1 µM) | 50 (≈ 66.1 µM) | MIC (EN[…] ATCC 8043): 0.2 µg/mL (≈ 0.265 µM); MIC (STR[…] 508): 0.05 µg/mL (≈ 0.0661 µM); MIC (ESCHERICHIA COLI KNK 437): 12.5 µg/mL (≈ 16.5 µM); MIC [22]: 50 µg/mL (≈ 66.1 µM); MIC [16]: 50 µg/mL (≈ 66.1 µM); MIC [17]: 1.56 µg/mL (≈ 2.06 µM); MIC (CANDIDA ALBICANS CCH 442): 100 µg/mL (≈ 132 µM); MIC [21]: 0.39 µg/mL (≈ 0.516 µM)
